Measured values taken from patent US10080779B2, “Method for increasing the expression of anti-microbial peptides by keratinocytes comprising administering a composition comprising IL-17, TNF-alpha and OSM” (Universite D'Angers, priority 2004, dated 2018).

B1: IL-31: cytokine whose receptor is a heterodimer of GPL and an OSMR subunit (protein, UniProt Q6EBC2 24-164, looked up)
Interleukin-31: SHTLPVRLLRPSDDVQKIVEELQSLSKMLLKDVEEEKGVLVSQNYTLPCLSPDAQPPNNIHSPAIRAYLKTIRQLDNKSVIDEIIEHLDKLIFQDAPETNISVPTDTHECKRFILTISQQFSECMDLALKSLTSGAQQATT

Key:
NHEK [1] = assay: S100A7 Western blotting in NHEK (Example 13); format: cell-based, human; conditions: 10 ng/ml, 96 h
Method: After 96 h of stimulation, NHEK lysis was performed as previously described (Boniface et al, 2005). After separation by SDS-PAGE, proteins were transferred to nitrocellulose membranes (Amersham pharmacia biotech) by electroblotting. S100A7 was detected with mouse anti-human S100A7 mAb (Imgenex, San Diego, Calif., USA) and sheep anti-mouse IgG peroxidase-conjugated polyclonal Ab (Amersham Biosciences). Bound Ab were detected by chemiluminescence (ECL Hyperfilm and ECL Plus Reagen, Amersham Biosciences Ltd).

NHEK [2] = assay: RT-QPCR of antimicrobial peptide and chemokine genes in NHEK; format: cell-based, human; conditions: 10 ng/ml, 24 h
Method: (§1) NHEK were obtained as previously described, from surgical samples of healthy breast skin (Boniface et al, 2005). NHEK were cultured to 80% of confluence and then starved for 24 h in Keratinocyte SFM without addition of growth factors before stimulation. Cells were stimulated with or without 10 ng/ml of recombinant IL-17A, OSM, TNFα, IL-22 and IL-1α alone or in combination (R&D systems Europe, Lille, France) during 24 h for mRNA quantification or 48 h to 96 h for protein quantification.
NHEK and skin total RNA were isolated and reverse-transcribed as previously described (Boniface et al, 2005). Quantitative real time PCR was carried using the LightCycler-FastStart DNA Master SYBR® Green I kit on LightCycler 480 (Roche Diagnostics, Meylan, France). The reaction components were 1×DNA Master Mix, and 0.5 μM of HPLC purified sense and anti-sense oligonucleotides purchased from Eurogentec (Eurogentec France, Angers, France), designed using Primer3 software. Samples were normalized to three independent control housekeeping genes (G3PDH, RPL13A or ACTB for human samples and G3PDH, HMBS or B2m for mouse samples) and reported according to the ΔΔCT method as RNA fold increase: 2^ΔΔCT=2^ΔCT sample−ΔCT eference. For comparison of normal skin and psoriatic skin the REST 2008 software was used (Pfaffl et al., 2002).

[3] = test system: normal human keratinocytes (NHEK); assay: Cytokine cocktails on S100A7, hBD2/4, KRT10 mRNA in NHEK (RT-Q-PCR); format: cell-based; conditions: NHEK 24 hrs, 1 ng/ml each
Method: (§2) Quantitative real time PCR was carried out using the LightCycler-FastStart DNA Master^PLUS SYBR Green I kit (Roche, Mannheim, Germany). The reaction components were 1× FastStart DNA Master^PLUS SYBR Green I and 0.5 μM of forward and reverse primers for S100A7 (forward 5′-[…]-3′ (SEQ ID No: 9) and reverse 5′-[…]-3′ (SEQ ID No: 10)), S100A8 (Pattyn, Speleman et al. 2003), S100A9 (forward 5′-[…]-3′ (SEQ ID No: 11) and reverse 5′-[…]-3′ (SEQ ID No: 12)), hBD2/4 (forward 5′-[…]-3′ (SEQ ID No: 13) and reverse 5′-[…]-3′ (SEQ ID No: 14)), KRT10 (forward 5′-[…]-3′ (SEQ ID No: 15) and reverse 5′-[…]-3′ (SEQ ID No: 16)), and hydroxymethyl-bilane synthase (HMBS) as a housekeeping gene (Vandesompele, De Preter et al. 2002). After cDNA fluorescent quantification using propidium iodide, 250 ng, 25 ng and 2.5 ng of cDNA were added as PCR template in the LightCycler glass capillaries. The cycling conditions comprised a 10 min polymerase activation at 95° C. and 50 cycles at 95° C. for 10 s, 64° C. for 5 s and 72° C. for 18 s with a single fluorescence measurement. […] A mathematical model was used to determine the relative quantification of target genes compared to HMBS reference gene (Pfaffl 2001).
To that aim, confluent normal human keratinocytes (NHEK) were treated for 24 hrs with the indicated mix of cytokines (each cytokine at 1 ng/ml final concentration). Total RNA was extracted, reverse-transcribed and the expression of the selected genes was analyzed by real-time PCR as described.

NHEK [4] = assay: cDNA macroarrays analysis of 36 cytokines on 154 genes in NHEK; format: cell-based, human; conditions: 10 ng/ml, 24 h
Method: The comparison of the effects of 36 different cytokines on the expression of 154 genes of potential interest for skin physiology was performed using home-made cDNA macroarrays analysis. After cytokine stimulation, total RNA was extracted using TRIzoI® Reagent (Invitrogen life Technologies) and conventional 33P-cDNA target synthesis and hybridization were performed (Boniface et al, 2007). Genes were considered regulated if expression levels differed more than 3-fold relative to untreated control and 3-fold relative to mean background noise.

NHEK [5] = assay: Cytokine measurement by ELISA in NHEK culture supernatants; format: cell-based, human; conditions: 10 ng/ml, 96 h
Method: as §1
Levels of BD2, BD3 and CXCL8 were determined using Human ELISA development kit (Peprotech), and CXCL1 and CXCL5 with DuoSet reagents (R&D Systems Europe).

NHEK [6] = assay: Keratinocyte differentiation marker (KDM) mRNA in NHEK (RT-PCR); format: cell-based, human; conditions: 24 h; for mRNA expression of CK1, DSG1, DSC1, FLG, CLSP, LOR and FABPS: single cytokines 10 ng/ml
Method: (§3) Normal human epidermal keratinocytes (NHEK) were obtained as previously described, from surgical samples of healthy breast skin (Boniface et al, 2005). NHEK were cultured to 80% of confluence allowing the expression of a large panel of keratinocyte differentiation markers, and then starved for 24 h in Keratinocyte SFM containing 0.03 mM Ca^2+ (Invitrogen Life Technologies, Cergy Pontoise, France) before stimulation. Confluent differentiated cells were stimulated with or without recombinant IL-17A, OSM, TNFα, IL-22 and IL-1α alone at maximum effective concentrations (reported previously around 10 ng/ml (Boniface et al, 2005 and Boniface et al, 2007)) or in combination (R&D systems Europe, Lille, France) during 2 h to 72 h for mRNA quantification. RHE were generated on polycarbonate culture inserts, from surgical samples of paediatric foreskins as previously described (Guenou et al., 2009). RHE were stimulated with or without recombinant IL-17A, OSM, TNFα, IL-22 and IL-1α alone or in combination, with or without a Janus protein Tyrosine Kinases (JAKs) inhibitor 10 μM (Calbiochem, 420099), during 24 h for mRNA quantification or during 72 h for immunohistological analysis.
(§4) NHEK, RHE and murine skin total RNA were isolated using NucleoSpin® RNA II kit (Macherey-Nagel, Hoerdt, France) and reverse-transcribed with SuperScript® II Reverse Transcriptase (Invitrogen Life Technologies) according to the manufacturer's instructions. Quantitative real time PCR was carried out using the LightCycler-FastStart DNA Master SYBR® Green I kit on LightCycler 480 (Roche Diagnostics, Meylan, France). The reaction components were 1×DNA Master Mix, and 0.5 μM of HPLC purified sense and anti-sense oligonucleotides purchased from Eurogentec (Eurogentec France, Angers, France), designed using Primer3 software. The stability of the housekeeping gene expression has been assessed by using GeNorm algorithm. […] Thus samples were normalized to G3PDH housekeeping gene and reported according to the ΔΔCT method as RNA fold increase: 2^ΔΔCT=2^ΔCT sample−ΔCT reference.

RHE [7] = assay: RHE histology and immunohistochemistry (Example 14); format: cell-based, human; conditions: single cytokines, 72 h
Method: as §3
RHE were washed and fixed with formaldehyde solution. Fixed tissues were dehydrated with increasing ethanol concentrations, embedded in paraffin and sections were carried out using a microtome (4 μm thickness). The sections were deparaffinised, washed and incubated with hydrogen peroxide. The sections were incubated with anti-CK10 (SantaCruz, SC-23877), anti-LOR (Eurogentec, PRB-145P), anti-FLG (SantaCruz, SC-66192), anti-IVL (Biomedical Technologies, BT-601), anti-S100A7 (Clinisciences, IMG-409A) and then detected using a biotin-conjugated secondary antibody (Vector, RTU vectastain universal quick kit, PK-7800). After peroxidase-conjugated streptavidine (Vector, RTU vectastain universal quick kit, PK-7800) and peroxidase substrate addition (Dako, Substrat hyper-sensible AEC+), nuclei were counter-stained using a solution of hematoxylin. Sections were observed using a NIKON E400 microscope. The images were captured using a NIKON DS-Ril and processed with NIS-Elements 3.10 software.

RHE [8] = assay: KDM mRNA in reconstituted human epidermis (RT-PCR); format: cell-based; conditions: 24 h
Method: as §3, §4

STAT3 = STAT3 phosphorylation in NHEK (Western blot); format: cell-based, human; conditions: NHEK stimulated 15 min with the cytokine
Method: For STAT3 and MAPK phosphorylation, NHEK were stimulated for 15 min in the presence of the indicated cytokine. Cells were lysed in SDS sample buffer (62.5 mM Tris-HCl pH 6.8, 2% SDS, 10% glycerol, 50 mM DTT, 0.1% bromophenol blue), sonicated and then submitted to SDS-PAGE and transferred onto an Immobilon membrane. The membranes were subsequently incubated overnight with the primary antibody, before being incubated with the appropriate peroxidase-labelled secondary antibody for 60 min. The reaction was visualized by chemiluminescence according to the manufacturer's instructions. Membranes were stripped in 0.1 M glycine pH 2.8 for 2 h and neutralized in 1 M Tris-HCl pH 7.6 before reblotting. For neutralizing experiments, NHEK were incubated with the appropriate antibodies for 2 h before stimulation.

NHEK [9] = assay: In vitro keratinocyte migration assay; format: cell-based, human; conditions: mitomycin-treated wounded NHEK; OSM 10 ng/ml, IL-31 100 ng/ml
Method: Keratinocytes were cultured in wells pre-coated with type I collagen (200 μg/ml, Institut Jacques Boy, Reims, France) until they reached 80% confluency. Cells were starved for 48 h in Keratinocyte SFM and then treated with 10 μg/ml of mitomycin C (Sigma) for 2 h to prevent cell proliferation. A cell-free area was created by scraping the keratinocyte monolayer with a plastic pipette tip. Keratinocytes migration to the cell-free area was evaluated after 48 h of culture in the absence or presence of EGF or OSM. Using an inverted phase contrast microscope. The number of migrating keratinocytes was counted in 4 non-overlapping fields. Values represent the mean±SEM of cells per mm^2 beyond the frontiers of the in vitro injury. Student's t test was used for statistical analysis.

NHEK [10] = assay: RT-real time PCR of S100 mRNA in cytokine-stimulated NHEK; format: cell-based, human; conditions: IL-31
Method: as §2

Row | Molecule | S100A7 expression in NHEK (western blotting) (NHEK [1]) | Number of the 21 chemokine and antimicrobial peptide genes upregulated (NHEK [2]) | Effect of depleting the cytokine from the mix on activity of the complete cocktail [3] | Number of genes (of 154) whose expression is modified with at least a three fold increase or decrease (NHEK [4]) | BD2 production, single cytokines (NHEK [5]) | BD3 production (NHEK [5]) | CXCL1, CXCL5, CXCL8 production, single cytokines (NHEK [5]) | Number of KDM whose control mRNA expression is partially restored on removal of the cytokine from M5 (NHEK [6]) [KDM] | mRNA expression of CK1, DSG1, DSC1, FLG, CLSP, LOR and FABPS (NHEK [6]) | CK10, LOR and FLG expression (immunohistology) (RHE [7]; RHE) | RHE histology (RHE [7]) | Expression of KDM mRNA (CK10, CK1, LOR, FLG) (RHE [8]) | S100A7 mRNA expression (RHE [8]) | IVL expression (immunohistology) (RHE [7]; RHE) | S100A7 expression (immunohistology) (RHE [7]; RHE) | STAT3 tyrosine phosphorylation (P-STAT3) (STAT3) | Keratinocyte migration to the cell-free area (NHEK [9]) | Expression of psoriasin and calgranulin A and B (S100A8-9) (NHEK [10])
1 | IL-1α: recombinant cytokine IL-1α | most potent inducer | 19 | did not significantly decrease the activity | at least five genes | most potent inducers | significant increase | most effective | 3 | minor activities | did not exhibit any activity | does not modify RHE histology |  |  |  |  |  |  | 
2 | IL-22: recombinant cytokine IL-22 |  | 14 | did not significantly decrease the activity | at least five genes |  | significant increase | discrete effect | 4 | downregulate mRNA expression | decreases expression of CK10, LOR and FLG | significant keratinocyte hyperplasia | most active cytokines | strongly induced | strongly | strongly induced |  |  | 
3 | LIF: leukemia inhibitory factor, cytokine of the IL-6 family |  |  |  |  |  |  |  |  |  |  |  |  |  |  |  | no evidence for a STAT3 activation |  | 
4 | B1 |  |  |  |  |  |  |  |  |  |  |  |  |  |  |  | recruits STAT3 signaling pathways | able to induce keratinocyte migration | induces expression
